What all share (format): cell-based
One assay has as its system K. pneumoniae UMM. As to the kind of experiment: microbe, parasite or virus in culture. To be noted: Klebsiella pneumoniae, read-out: MIC K. pneumoniae UMM.
The next assay has as its system A. baumannii CDC-0083. As to the kind of experiment: microbe, parasite or virus in culture. To be noted: Acinetobacter baumannii, CDC0083, read-out: MIC, A. baumannii CDC-0083.
The next assay has as its system E. coli AG100. The experiment in a line: microbe, parasite or virus in culture. As to conditions: Escherichia coli, AG100, read-out: MIC E. coli AG100.
In another assay the test system is E. coli AG100A. As to the kind of experiment: Broth microdilution MIC in CAMHB. As to conditions: Escherichia coli, read-out: MIC E. coli AG100A.
Assay [1] has as its system P. aeruginosa (ΔmexAB-oprM). The experiment in a line: Broth microdilution MIC in CAMHB.
For a further assay, the system named is P. aeruginosa ATCC 35151. As to the kind of experiment: microbe, parasite or virus in culture. As to conditions: Pseudomonas aeruginosa, ATCC35151, read-out: MIC P. aeruginosa ATCC 35151.
The subject of a further assay is K. pneumoniae 848844. The experiment in a line: microbe, parasite or virus in culture. To be noted: Klebsiella pneumoniae, 848844, read-out: MIC K. pneumoniae 848844.
[2] abbreviates: Pseudomonas aeruginosa; read-out: MIC P. aeruginosa ΔmexAB-oprM.

Structures are written as SMILES. In brackets after ≈: the same amount, converted by molar mass. Like-named read-outs stand apart in the source and are kept apart here. Bounds are passed on as bounds.

Turning to `O=C(O)c1c(F)ccc2c1OB(O)[C@@H](NC(=O)[C@H](NC(=O)N1CCN(Cc3ccc(O)c(O)c3Cl)C(=O)C1=O)c1ccc(P(=O)(O)O)cc1)C2` (single isomer, unassigned) [Example 160], the MIC in the assay with K. pneumoniae UMM is 2 to 4 µg/mL (≈ 2.72 to 5.44 µM); with A. baumannii CDC-0083 it was less than 1 µg/mL; in the assay with E. coli AG100, less than 1 µg/mL; with E. coli AG100A, less than 1 µg/mL; in assay [1] (setting [2]), less than 1 µg/mL; in the assay with P. aeruginosa ATCC 35151, less than 1 µg/mL. For the same molecule, the MIC with K. pneumoniae 848844 fell in the range of 32 to 64 µg/mL (≈ 43.6 to 87.1 µM).
Take `O=C(O)c1cccc2c1OB(O)[C@@H](NC(=O)[C@H](NC(=O)N1CCN(Cc3cc(F)c(O)c(O)c3Cl)C(=O)C1=O)c1ccc(P(=O)(O)O)cc1)C2` [Example 504, (R)-3-((R)-2-(4-(2-chloro-5-fluoro-3,4-dihydroxybenzyl)-2,3-dioxopiperazine-1-carboxamido)-2-(4-phosphonophenyl)acetamido)-2-hydroxy-3,4-dihydro-2H-benzo[e][1,2]oxaborinine-8-carboxylic acid]: the MIC in the assay with K. pneumoniae UMM is 2 to 4 µg/mL (≈ 2.72 to 5.44 µM); in the assay with E. coli AG100, less than 1 µg/mL; in the assay with E. coli AG100A it was less than 1 µg/mL; in assay [1] (Pseudomonas aeruginosa, read-out: MIC P. aeruginosa ΔmexAB-oprM) it was less than 1 µg/mL; with P. aeruginosa ATCC 35151, less than 1 µg/mL; in the assay with K. pneumoniae 848844, 2 to 4 µg/mL (≈ 2.72 to 5.44 µM).
Regarding `O=C(O)c1c(F)ccc2c1OB(O)[C@@H](NC(=O)C(NC(=O)N1CCN(S(=O)(=O)c3ccc(O)c(O)c3Cl)C1=O)c1ccc(P(=O)(O)O)cc1)C2` (stereo partly drawn) [Example 505, (3R)-3-(2-(3-((2-chloro-3,4-dihydroxyphenyl)sulfonyl)-2-oxoimidazolidine-1-carboxamido)-2-(4-phosphonophenyl)acetamido)-7-fluoro-2-hydroxy-3,4-dihydro-2H-benzo[e][1,2]oxaborinine-8-carboxylic acid], the MIC (with K. pneumoniae UMM; in the assay on E. coli AG100; in the assay on E. coli AG100A; in assay [1] (setting [2]); with P. aeruginosa ATCC 35151; with K. pneumoniae 848844) was less than 1 µg/mL throughout.
On to `O=C(O)c1c(F)ccc2c1OB(O)[C@@H](NC(=O)[C@H](NC(=O)N1CCN(S(=O)(=O)c3ccc(O)c(O)c3Cl)C1=O)c1ccc(P(=O)(O)O)cc1)C2` [Example 506, (R)-3-((R)-2-(3-((2-chloro-3,4-dihydroxyphenyl)sulfonyl)-2-oxoimidazolidine-1-carboxamido)-2-(4-phosphonophenyl)acetamido)-7-fluoro-2-hydroxy-3,4-dihydro-2H-benzo[e][1,2]oxaborinine-8-carboxylic acid], for which the MIC is less than 1 µg/mL in the assay on K. pneumoniae UMM; less than 1 µg/mL in the assay on E. coli AG100; less than 1 µg/mL with E. coli AG100A; less than 1 µg/mL in assay [1] (setting [2]); less than 1 µg/mL in the assay on P. aeruginosa ATCC 35151; 2 to 4 µg/mL (≈ 2.64 to 5.29 µM) in the assay with K. pneumoniae 848844.
With `O=C(O)c1cccc2c1OB(O)[C@@H](NC(=O)[C@H](NC(=O)N1CCN(S(=O)(=O)c3ccc(O)c(O)c3Cl)C1=O)c1ccc(P(=O)(O)O)cc1)C2` [Example 509, (R)-3-((R)-2-(3-((2-chloro-3,4-dihydroxyphenyl)sulfonyl)-2-oxoimidazolidine-1-carboxamido)-2-(4-phosphonophenyl)acetamido)-2-hydroxy-3,4-dihydro-2H-benzo[e][1,2]oxaborinine-8-carboxylic acid], the MIC (in the assay with K. pneumoniae UMM; in the assay with E. coli AG100; in the assay with E. coli AG100A; in assay [1] (setting [2]); in the assay on P. aeruginosa ATCC 35151; in the assay on K. pneumoniae 848844) was less than 1 µg/mL in each case.

The values are drawn from patent publication US20240270762A1, “PENICILLIN-BINDING PROTEIN INHIBITORS” (priority 2021, published 2024).
